{"source": "patent US20260248773A1", "about": "“POTASSIUM CHANNEL BLOCKERS OR DERIVATIVES THEREOF FOR PREVENTING, ALLEVIATING, AND/OR TREATING TISSUE DYSFUNCTION CAUSED BY TOXIC INSULTS” (priority 2022, published 2026)", "key": {"[1]": {"test_system": "chemotherapy-induced peripheral neuropathy (CIPN) caused by PTX", "description": "More specifically, initial studies were conducted on the specific case of CIPN as induced by exposure to PTX. […] 16 week old C73L/6 female mice were given a single dose of 35 mg/kg PTX (i.p.). Animals were separated into control (saline, i.p., n=4) or treatment group (2 mg/kg 4-AP daily, i.p., n=4). Pre-treatment Catwalk scores were compared to 21 days post-PTX injection.\nTo align with clinical treatments, mice were treated with a PTX dose of 35 mg/kg (equivalent to approximately 110 mg/m^2 and within the clinical treatment range) for four cycles, each three weeks apart.\nThe studies also included a 4-AP treatment arm (n=4) with a daily dose of 2 mg/kg 4-AP administered i.p. (as per most previous studies by MN and colleagues).\nTo evaluate detailed functional changes in gait, the CatWalk™ (Noldus Information Technology, Wageningen, The Netherlands) method was implemented.\nSciatic nerve samples were harvested and resin-embedded, sectioned and imaged using transmission electron microscopy. Images were analyzed to calculate markers of peripheral neuropathy, namely: axon counts, fiber size, myelination (g ratio), and circumferential irregularity (FIG. 2)."}, "PTX-induced CIPN": {"test_system": "PTX-induced CIPN", "test": "Repetitive PTX exposure, 4-AP weeks 6-12, follow-up to week 18 (Example 6)", "format": "in vivo, mice", "description": "To examine this question, 16 week old C7BL/6 female mice were given four cycles of PTX treatment at doses of 35 mg/kg PTX (i.p.). All animals had functionally demonstrable peripheral neuropathy at six weeks. Animals were then treated with the same dose and treatment regimen of 4-AP used in FIG. 5."}, "kidney": {"test_system": "kidney", "test": "Kidney histology (H&E) after PTX with or without 4-AP (Example 8)", "format": "in vivo, mice", "details": "PTX day 0", "description": "To examine effects on the kidney histological studies were conducted on this tissue. Mice received PTX on day 0 of the experiment, and half of those mice also were injected with 4-AP at this time, and every day thereafter, at a dosage of 2 mg/kg. Mice not receiving 4-AP were injected with saline to control for any stress induced by daily injections. Experimental groups also included mice receiving no PTX treatment, and treated only with daily injections of saline. Mice were sacrificed after 1 week. Mice were perfused with 4% paraformaldehyde and kidneys were sectioned and stained with haematoxylin & eosin (H&E)."}, "[2]": {"test_system": "A549 human lung cancer cell line", "test": "4-AP co-applied with cisplatin to cancer cells in vitro (Example 10)", "format": "cell-based", "details": "5 days, 1 mM 4-AP", "description": "To investigate the effects of 4-AP treatment on cancer cells, 4-AP was co-applied with either paclitaxel or cisplatin in dose response curves extending over a >20-fold range to the widely studied E0771 murine breast cancer cell line and the A549 human lung cancer cell line. Cells were exposed to paclitaxel or cisplatin for 5 days in the presence or absence of 1 mM 4-AP. This concentration of 4-AP is typically used for in vitro studies, and greatly exceeds achievable concentrations in vivo. This higher dose would increase the likelihood of detecting protective activity."}, "[3]": {"test_system": "chronic spinal cord injury", "details": "individuals with chronic spinal cord injury; cited from earlier work"}, "[4]": {"test_system": "acute peripheral nerve traumatic crush injuries", "details": "localized peripheral nerve crush injuries; cited from earlier work"}, "[5]": {"details": "3 weeks after one 35 mg/kg PTX, 2 mg/kg 4-AP daily"}, "[6]": {"details": "single 35 mg/kg PTX i.p., 2 mg/kg 4-AP daily i.p., vs saline control"}, "[7]": {"details": "single 35 mg/kg PTX, 2 mg/kg 4-AP daily i.p., pre-treatment vs 21 days post-PTX"}, "[8]": {"details": "4-AP 0.5 mg/kg/day weeks 6-12, observed to week 18"}, "[9]": {"details": "4-AP 0.5 mg/kg/day weeks 6-12, 12 and 18 week time points"}}, "data": [{"smiles": "Nc1ccncc1", "note": "[4-AP, 4-aminopyridine]", "values": [{"measurement": "PTX-induced changes in mitochondrial size and health", "setting": "[1]; 2 mg/kg 4-AP daily i.p.", "result": "decreased PTX-induced changes in mitochondrial size and health"}, {"measurement": "signs of CIPN", "setting": "[1]; 2 mg/kg 4-AP daily i.p. vs saline, n=4", "result": "significantly reduced signs of CIPN"}, {"measurement": "G ratio (axon:myelin area), sciatic nerve", "setting": "[1]; [5]", "result": "better myelinated than the control group"}, {"measurement": "axon circularity, sciatic nerve", "setting": "[1]; [5]", "result": "more regularly structured than the control group"}, {"measurement": "nerve conduction latency", "setting": "[1]; [6]", "result": "significantly smaller increase in latency"}, {"measurement": "nerve conduction velocity", "setting": "[1]; [6]", "result": "significantly smaller decrease in velocity"}, {"measurement": "Catwalk stance phase", "setting": "[1]; [7]", "result": "no significant changes"}, {"measurement": "Catwalk swing phase", "setting": "[1]; [7]", "result": "no significant changes"}, {"measurement": "nerve conduction latency", "setting": "PTX-induced CIPN; 4-AP 0.5 mg/kg/day weeks 6-12", "result": "reverse PTX-induced abnormalities in nerve conduction latency"}, {"measurement": "Catwalk Regularity Index", "setting": "PTX-induced CIPN; [8]", "result": "benefits observed at Week 9 (i.e, after 3 weeks of 4-AP treatment) and retained for at least 6 weeks after 4-AP treatment ended"}, {"measurement": "durability of benefits on peripheral nerve function", "setting": "PTX-induced CIPN; [8]", "result": "Benefits were still present six weeks after the end of treatment"}, {"measurement": "mechanical hypersensitivity, von Frey filament testing", "setting": "PTX-induced CIPN; [8]", "result": "Benefits began to be observed at Week 12 and were maintained at Weeks 15 and 18"}, {"measurement": "paw lifts and jumping behavior, cold-plate stimulus", "setting": "PTX-induced CIPN; [8]", "result": "durable reversal"}, {"measurement": "G-ratio", "setting": "PTX-induced CIPN; [9]", "result": "restored to normal at the 12 week time point, and these benefits are maintained at the 18 week time point"}, {"measurement": "circularity", "setting": "PTX-induced CIPN; [9]", "result": "restored to normal at the 12 week time point, and these benefits are maintained at the 18 week time point"}, {"measurement": "proximal and distal tubules, H&E staining", "setting": "kidney; 4-AP 2 mg/kg daily, sacrificed after 1 week", "result": "normal proximal and distal tubules"}, {"measurement": "histological kidney damage caused by PTX exposure", "setting": "kidney; 4-AP co-treatment", "result": "prevented multiple aspects of histological kidney damage"}, {"measurement": "protection of cancer cells from cisplatin", "setting": "[2]", "result": "does not protect"}, {"measurement": "Phase III outcome", "setting": "[3]", "result": "failed to reveal significant benefits"}, {"measurement": "neuropathic pain", "setting": "[3]", "result": "decrease neuropathic pain in some individuals"}, {"measurement": "recovery of thermal hyperalgesia and mechanical allodynia", "setting": "[4]", "result": "enhanced recovery on the specific parameter or thermal hyperalgesia, but not mechanical allodynia"}]}]}
